30 molecules from US20100249132A1, “IMIDAZOLE DERIVATIVES” (MERCK PATENT GESELLSCHAFT MIT BESCHRANKTER HAFTUNG, priority 2007, published 2010) can be followed below.

This test concerns the target T1, recombinant autotaxin (Homo sapiens, UniProt Q13822).
T1 construct: made in house; host or cells: Hi5 insect cells (baculovirus)
Kind of test: Autotaxin test (enzyme test), Amplex Red fluorescence. It is filed as biochemical. Particulars: substrate LPC 75 μM, Amplex Red detection, read-out: IC50 (autotaxin inhibition, enzyme test). The procedure: Autotaxin Inhibition (Enzyme Test)
Autotaxin Test (Enzyme Test)
The autotaxin activity is measured indirectly using Amplex Red reagent. Amplex Red is measured here as fluorogenic indicator for the H2O2 formed. In detail, autotaxin converts the substrate lysophosphatidylcholine (LPC) into phosphocholine and lysophosphatidylic acid (LPA). After this reaction, the phosphocholine is reacted with alkaline phosphatase to give inorganic phosphate and choline. In the next step, choline is oxidised by choline oxidase to give betaine, with formation of H2O2. H2O2 reacts with Amplex Red reagent in the presence of peroxidase (horseradish peroxidase) in a 1:1 stoichiometry and forms the highly fluorescent resorufin. The fluorescence is measured in a reaction-dependent kinetic mode in order that fluorescent signals from possible other fluorescent substances which are not involved in the reaction can be corrected out.
1.5 μl of a standard solution or of the test substances (substances with the name A(n)) in individual concentrations dissolved in 20 mM Hepes pH 7.2 with a maximum of 7.7% of DMSO are pre-incubated together with 10 μl (16 ng) of highly purified recombinant autotaxin in a black microtitre plate provided with 384 wells at 22° C. for 30 min. The reaction is then initiated by addition of 5 μl of L-α-lysophosphatidylcholine (LPC), where the final concentration of LPC is 75 μM. The mixture is incubated at 37° C. for 90 min. After the incubation, Amplex Red reagent, peroxidase (horseradish peroxidase) and choline oxidase is added, and the fluorescence is immediately measured at 612 nm with excitation of 485 nm in a “Tecan Ultra multimode” reader. The activity of autotaxin is calculated indirectly via detection of the H2O2 formed. • Material: • Microtitre plate: PS microplate, 384 wells, small volume, black Corning, Cat #3677 • Protein: recombinant autotaxin (Baculovirale Hi5 Expression) • Substrate: L-α-lysophosphatidylcholine (chicken egg)); Avanti Polar Lipids #830071 P • Standard: C14 LPA, Avanti Polar Lipids, Cat #857120P • Detection reagent: Amplex Red reagent; Invitrogen #A12222; dissolved in 1.923 ml of DMSO peroxidase type VI-A (horseradish) from Sigma #P6782; dissolved in 7.45 ml of test buffer, choline oxidase; Sigma #C5896; dissolved in 2.47 ml of test buffer • Detection reagent mix: 1:100 dilution of Amplex Red reagent in test buffer • Test buffer: 200 mM Tris HCl, Merck, Cat #1.08219, pH 7.9, 0.1% of BSA, lipid-free, Roche Cat #775835
Usually IC50 stands for the concentration needed to halve the response being measured. For the molecule `Cc1ccc(NC(=O)Nc2[nH]c(COc3ccc(CC(=O)O)cc3)nc2C(N)=O)c(C)c1` [Compound A60, (4-{4-Carbamoyl-5-[3-(2,4-dimethylphenyl)-ureido]-1H-imidazol-2-ylmethoxy}phenyl)acetic acid], the IC50 fell in the range of 1 to 10 µM.
Consider `Cc1cc(Cl)ccc1NC(=O)Nc1[nH]c(COc2ccc(CC(=O)O)cc2)nc1C(N)=O` [Compound A62, (4-{4-Carbamoyl-5-[3-(4-chloro-2-methylphenyl)-ureido]-1H-imidazol-2-ylmethoxy}phenyl)acetic acid], for which the IC50 is 1 to 10 µM.
Take `NC(=O)c1nc(COc2ccc(CC(=O)O)cc2)[nH]c1NC(=O)Nc1ccc(C(F)(F)F)cc1` [Compound A56, (4-{4-Carbamoyl-5-[3-(4-trifluoromethylphenyl)-ureido]-1H-imidazol-2-ylmethoxy}phenyl)acetic acid]: the IC50 fell in the range of 1 to 10 µM.
Then `NC(=O)c1nc(-c2ccc(CC(=O)O)cc2)[nH]c1NC(=O)Nc1cccc(Cl)c1` [Compound A21, (4-{4-Carbamoyl-5-[3-(3-chlorophenyl)ureido]-1H-imidazol-2-yl}phenyl)acetic acid], with more than 10 µM.
For `Cc1cc(C)c(NC(=O)Nc2[nH]c(Cc3ccc(C(=O)O)o3)nc2C(N)=O)c(C)c1` [Compound A31, 5-{4-Carbamoyl-5-[3-(2,4,6-trimethylphenyl)-ureido]-1H-imidazol-2-ylmethyl}furan-2-carboxylic acid], the concentration for half-maximal inhibition (IC50) is 1 to 10 µM.
In the case of `NC(=O)c1nc(Cc2ccc(C(=O)O)o2)[nH]c1NC(=O)NCCc1ccccc1` [Compound A27, 5-[4-Carbamoyl-5-(3-phenethylureido)-1H-imidazol-2-ylmethyl]furan-2-carboxylic acid], the IC50 is 1 to 10 µM.
As for `NC(=O)c1nc(CCCCN2C(=O)c3ccccc3C2=O)[nH]c1NC(=O)Nc1ccc(Cl)cc1` [Compound B77], the IC50 is more than 10 µM.
Then `NC(=O)c1nc(Cc2ccc(C(=O)O)cc2)[nH]c1NC(=O)Nc1ccc(Cl)cc1` [Compound A6, 4-{4-Carbamoyl-5-[3-(4-chlorophenyl)ureido]-1H imidazol-2-ylmethyl}benzoic acid], with 1 to 10 µM; and `Cc1ccc(NC(=O)Nc2[nH]c(-c3ccc(CC(=O)O)cc3)nc2C(N)=O)c(C)c1` [Compound A24, (4-{4-Carbamoyl-5-[3-(2,4-dimethylphenyl)-ureido]-1H-imidazol-2-yl}phenyl)acetic acid], with more than 10 µM; and `CCCCc1ccc(NC(=O)Nc2[nH]c(Cc3ccc(C(=O)N4CCN(C)CC4)o3)nc2C(N)=O)cc1` [Compound A85, 5-[3-(4-Butylphenyl)ureido]-2-[5-(4-methyl-piperazine-1-carbonyl)furan-2-ylmethyl]-1H-imidazole-4-carboxamide], with 1 to 10 µM.
For `CCCCCCNC(=O)Nc1[nH]c(Cc2ccc(C(=O)O)cc2)nc1C(N)=O` [Compound A4, 4-[4-Carbamoyl-5-(3-hexylureido)-1H-imidazol-2-ylmethyl]benzoic acid], the half-maximal inhibitory concentration (IC50) was more than 10 µM.
The value for `CCCCc1ccc(NC(=O)Nc2[nH]c(Cc3ccc(C(=O)NC4CCCCC4)o3)nc2C(N)=O)cc1` [Compound A77, 5-[3-(4-Butylphenyl)ureido]-2-(5-cyclohexyl-carbamoylfuran-2-ylmethyl)-1H-imidazole-4-carboxamide] was more than 10 µM; that for `CCCCc1ccc(NC(=O)Nc2[nH]c(Cc3ccc(C(=O)N4CCN(c5ccccc5)CC4)o3)nc2C(N)=O)cc1` [Compound A86, 5-[3-(4-Butylphenyl)ureido]-2-[5-(4-phenyl-piperazine-1-carbonyl)furan-2-ylmethyl]-1H-imidazole-4-carboxamide] was more than 10 µM.
The value for `NC(=O)c1nc(Cc2ccc(OCC(=O)O)cc2)[nH]c1NC(=O)Nc1ccc(F)cc1` [Compound A36, (4-{4-Carbamoyl-5-[3-(4-fluorophenyl)ureido]-1H-imidazol-2-ylmethyl}phenoxy)acetic acid] was more than 10 µM.
Regarding `Cc1c(Cl)cccc1NC(=O)Nc1[nH]c(Cc2ccc(C(=O)O)cc2)nc1C(N)=O` [Compound A8, 4-{4-Carbamoyl-5-[3-(3-chloro-2-methylphenyl)-ureido]-1H-imidazol-2-ylmethyl}benzoic acid], the concentration for half-maximal inhibition (IC50) fell in the range of 1 to 10 µM.
Then `CCc1cccc(C)c1NC(=O)Nc1[nH]c(Cc2ccc(C(=O)O)o2)nc1C(N)=O` [Compound A32, 5-{4-Carbamoyl-5-[3-(2-ethyl-6-methylphenyl)-ureido]-1H-imidazol-2-ylmethyl}furan-2-carboxylic acid], with more than 10 µM; and `NC(=O)c1nc(-c2ccc(OCC(=O)O)cc2)[nH]c1NC(=O)Nc1ccc(C(F)(F)F)cc1` [Compound A50, (4-{4-Carbamoyl-5-[3-(4-trifluoromethylphenyl)-ureido]-1H-imidazol-2-yl}phenoxy)acetic acid], with 1 to 10 µM; and `CC(C)c1ccc(NC(=O)Nc2[nH]c(-c3ccc(OCC(=O)O)cc3)nc2C(N)=O)cc1` [Compound A51, (4-{4-Carbamoyl-5-[3-(4-isopropylphenyl)ureido]-1H-imidazol-2-yl}phenoxy)acetic acid], with 1 to 10 µM.
Then `NC(=O)c1nc(COc2ccc(CC(=O)O)cc2)[nH]c1NC(=O)Nc1ccc(Cl)cc1` [Compound A59, (4-{4-Carbamoyl-5-[3-(4-chlorophenyl)ureido]-1H-imidazol-2-ylmethoxy}phenyl)acetic acid], with more than 10 µM; and `CC(C)c1ccc(NC(=O)Nc2[nH]c(Cc3ccc(C(=O)O)s3)nc2C(N)=O)cc1` [Compound A68, 5-{4-Carbamoyl-5-[3-(4-isopropylphenyl)ureido]-1H-imidazol-2-ylmethyl}thiophene-2-carboxylic acid], with 1 to 10 µM.
The value for `Cc1ccc(NC(=O)Nc2[nH]c(Cc3ccc(C(=O)O)s3)nc2C(N)=O)c(C)c1` [Compound A71, 5-{4-Carbamoyl-5-[3-(2,4-dimethylphenyl)-ureido]-1H-imidazol-2-ylmethyl}thiophene-2-carboxylic acid] was 1 to 10 µM.
As for `CCCCc1ccc(NC(=O)Nc2[nH]c(Cc3ccc(C(=O)N4CCCC4)o3)nc2C(N)=O)cc1` [Compound A81, 5-[3-(4-Butylphenyl)ureido]-2-[5-(pyrrolidine-1-carbonyl)furan-2-ylmethyl]-1H-imidazole-4-carboxamide], the 50% inhibitory concentration (IC50) was more than 10 µM.
Turning to `CCCCc1ccc(NC(=O)Nc2[nH]c(Cc3ccc(C(=O)N(C)CCCC)o3)nc2C(N)=O)cc1` [Compound A79, 2-[5-(Butylmethylcarbamoyl)furan-2-ylmethyl]-5-[3-(4-butylphenyl)ureido]-1H-imidazole-4-carboxamide], the IC50 was more than 10 µM.
The value for `NC(=O)c1nc(Cc2ccc(OCC(=O)O)cc2)[nH]c1NC(=O)Nc1ccc(C(F)(F)F)cc1` [Compound A38, (4-{4-Carbamoyl-5-[3-(4-trifluoromethylphenyl)-ureido]-1H-imidazol-2-ylmethyl}phenoxy)acetic acid] was 1 to 10 µM; that for `CCCCc1ccc(NC(=O)Nc2[nH]c(Cc3ccc(C(=O)N(CC)CC)o3)nc2C(N)=O)cc1` [Compound A78, 5-[3-(4-Butylphenyl)ureido]-2-(5-diethyl-carbamoylfuran-2-ylmethyl)-1H-imidazole-4-carboxamide] was more than 10 µM.
For `CCCCc1ccc(NC(=O)Nc2[nH]c(Cc3ccc(C(=O)N4CCCCC4)o3)nc2C(N)=O)cc1` [Compound A88, 5-[3-(4-Butylphenyl)ureido]-2-[5-(piperidine-1-carbonyl)furan-2-ylmethyl]-1H-imidazole-4-carboxamide], the half-inhibitory concentration (IC50) is more than 10 µM.
The value for `Cc1ccc(NC(=O)Nc2[nH]c(Cc3ccc(C(=O)O)o3)nc2C(N)=O)c(C)c1` [Compound A14, 5-{4-Carbamoyl-5-[3-(2,4-dimethylphenyl)-ureido]-1H-imidazol-2-ylmethyl}furan-2-carboxylic acid] was more than 10 µM; that for `CCc1ccc(NC(=O)Nc2[nH]c(Cc3ccc(C(=O)O)o3)nc2C(N)=O)cc1` [Compound A11, 5-{4-Carbamoyl-5-[3-(4-ethylphenyl)ureido]-1H-imidazol-2-ylmethyl}furan-2-carboxylic acid] was 1 to 10 µM.
`Cc1ccc(NC(=O)Nc2[nH]c(COc3ccc(CC(=O)O)cc3)nc2C(N)=O)cc1` [Compound A58, {4-[4-Carbamoyl-5-(3-p-tolylureido)-1H-imidazol 2-ylmethoxy]phenyl}acetic acid]: the IC50 is more than 10 µM.
The value for `Cc1cc(C)cc(NC(=O)Nc2[nH]c(-c3ccc(CC(=O)O)cc3)nc2C(N)=O)c1` [Compound A25, (4-{4-Carbamoyl-5-[3-(3,5-dimethylphenyl)-ureido]-1H-imidazol-2-yl}phenyl)acetic acid] was more than 10 µM.
